Reference: patent publication US20030215462A1, “Use of UGT inhibitors to increase bioavailability” (priority 2001, published 2003)

Assays:
UGT1A3 = molecular target: T1, UGT1A3 (Homo sapiens, UniProt P35503); test: Inhibition of raloxifene glucuronidation by recombinant UGT1A3 Supersomes; details: human; for activity at 15 min, 10 µM: inhibitor 10 μM; for activity at 15 min, 25 µM: inhibitor 25 μM; for activity at 15 min, 50 µM: inhibitor 50 μM
T1 sequence (P35503 29-534): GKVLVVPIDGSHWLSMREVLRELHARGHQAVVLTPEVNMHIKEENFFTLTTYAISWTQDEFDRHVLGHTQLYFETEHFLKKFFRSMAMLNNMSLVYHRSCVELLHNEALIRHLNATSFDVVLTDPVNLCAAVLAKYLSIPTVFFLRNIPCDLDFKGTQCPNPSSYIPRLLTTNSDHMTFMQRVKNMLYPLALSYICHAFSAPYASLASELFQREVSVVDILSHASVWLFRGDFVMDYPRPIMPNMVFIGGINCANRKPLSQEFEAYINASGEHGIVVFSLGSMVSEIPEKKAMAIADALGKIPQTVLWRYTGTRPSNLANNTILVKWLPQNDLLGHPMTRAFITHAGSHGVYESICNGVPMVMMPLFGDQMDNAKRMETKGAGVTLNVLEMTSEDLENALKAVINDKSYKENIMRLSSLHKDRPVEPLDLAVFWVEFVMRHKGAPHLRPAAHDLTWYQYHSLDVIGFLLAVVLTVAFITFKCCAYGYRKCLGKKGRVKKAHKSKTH
Description: (§1) Compounds were eluted using a binary solvent gradient system. Solvent A was water brought to pH 8 with NH4OH. Solvent B was methanol. Solvent flow rate was 1 ml/min and the column temperature was maintained at 50° C. Detection was at 280 nm. […] The system was then returned to the initial conditions and equilibrated for 3 min.

[1] = system: UGT enzymes of pooled human jejunum microsomes; test: Inhibition of estradiol (E2) glucuronidation in pooled human jejunum microsomes; assay type: biochemical; details: jejunum HJ61, E2 50 μM
Description: Compounds were eluted using a binary solvent gradient system where solvent A was dilute phosphoric acid (pH 3) and solvent B was 80:20 acetonitrile-methanol. […] Detection was at 280 nm.

UGT1A9 = molecular target: T2, UGT1A9 (Homo sapiens, UniProt O60656); test: Inhibition of raloxifene glucuronidation by recombinant UGT1A9 Supersomes; details: for Inhibition of raloxifene glucuronidation, UGT1A9, first line per inhibitor (G1): first line (G1, metabolite not given); for Inhibition of raloxifene glucuronidation, UGT1A9, first line per inhibitor (G1) / Inhibition of raloxifene glucuronidation, UGT1A9, second line per inhibitor (G2): raloxifene 50 μM, 250 μg/ml Supersomes, 1 mM UDPGA, 15 min; for activity at 15 min, 2 μM / activity at 15 min, 5 µM / activity at 15 min, 10 µM / activity at 15 min, 25 µM / activity at 15 min, 50 µM: human, Supersomes with recombinant human UGT1A9, pH 7.5, probe raloxifene 50 μM; for Inhibition of raloxifene glucuronidation, UGT1A9, second line per inhibitor (G2): second line (G2, metabolite not given)
T2 sequence (O60656 26-530): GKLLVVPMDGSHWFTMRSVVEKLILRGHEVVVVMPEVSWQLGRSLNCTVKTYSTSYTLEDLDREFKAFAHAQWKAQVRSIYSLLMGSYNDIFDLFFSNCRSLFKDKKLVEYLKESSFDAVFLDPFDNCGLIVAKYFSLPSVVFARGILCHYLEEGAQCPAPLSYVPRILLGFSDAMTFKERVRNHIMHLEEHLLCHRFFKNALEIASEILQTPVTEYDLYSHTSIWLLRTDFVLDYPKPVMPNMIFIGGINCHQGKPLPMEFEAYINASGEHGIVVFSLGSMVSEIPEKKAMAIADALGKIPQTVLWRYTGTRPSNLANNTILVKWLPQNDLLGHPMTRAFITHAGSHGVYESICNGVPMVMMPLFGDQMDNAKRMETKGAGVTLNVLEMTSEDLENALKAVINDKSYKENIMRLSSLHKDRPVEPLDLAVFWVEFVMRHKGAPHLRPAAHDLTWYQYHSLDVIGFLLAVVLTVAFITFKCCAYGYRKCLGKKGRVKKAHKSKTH

[2] = system: T3, UGT enzymes of human liver microsomes; test: Kinetic and Ki studies of inhibitors of 7-HFC glucuronidation in human liver microsomes; assay type: biochemical; details: 7-HFC 20-500 μM
T3 construct: percentage of control metabolism, 7-HFC glucuronidation; percentage of control metabolism, 7-HFC glucuronidation

UGT1A1 = molecular target: T4, UGT1A1 (Homo sapiens, UniProt P22309); test: Inhibition of raloxifene glucuronidation by recombinant UGT1A1 Supersomes; details: human; for activity at 15 min, 10 µM: inhibitor 10 μM; for activity at 15 min, 25 µM: inhibitor 25 μM; for activity at 15 min, 50 µM: inhibitor 50 μM
T4 sequence (P22309 26-533): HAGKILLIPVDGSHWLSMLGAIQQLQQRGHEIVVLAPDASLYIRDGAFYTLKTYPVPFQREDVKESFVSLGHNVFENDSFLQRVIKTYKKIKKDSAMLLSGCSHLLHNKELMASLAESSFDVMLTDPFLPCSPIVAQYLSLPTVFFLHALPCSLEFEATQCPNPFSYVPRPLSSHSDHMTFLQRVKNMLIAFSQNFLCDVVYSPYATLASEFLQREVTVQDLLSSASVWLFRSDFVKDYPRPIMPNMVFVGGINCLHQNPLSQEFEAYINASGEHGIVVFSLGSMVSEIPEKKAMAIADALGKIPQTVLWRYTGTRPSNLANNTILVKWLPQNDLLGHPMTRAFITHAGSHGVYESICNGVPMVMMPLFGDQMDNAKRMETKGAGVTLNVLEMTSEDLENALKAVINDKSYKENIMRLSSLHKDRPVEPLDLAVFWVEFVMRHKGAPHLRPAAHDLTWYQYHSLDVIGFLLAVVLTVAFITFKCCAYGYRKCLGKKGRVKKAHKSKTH
Description: as §1

[3] = Supersomes with recombinant human UGT1A3, pH 7.5, probe raloxifene 50 μM, formation of glucuronide G1, % of control metabolism, raloxifene G1, UGT1A3
[4] = Supersomes with recombinant human UGT1A3, pH 7.5, probe raloxifene 50 μM, formation of glucuronide G2, % of control metabolism, raloxifene G2, UGT1A3
[5] = recombinant UGT1A3 Supersomes, pH 7.5, probe raloxifene 50 μM (formation of glucuronide G1), Inhibition of raloxifene glucuronidation, G1, UGT1A3, G1, raloxifene 50 μM, 250 μg/ml Supersomes, 1 mM UDPGA, 15 min
[6] = recombinant UGT1A3 Supersomes, pH 7.5, probe raloxifene 50 μM (formation of glucuronide G2), Inhibition of raloxifene glucuronidation, G2, UGT1A3, G2, raloxifene 50 μM, 250 μg/ml Supersomes, 1 mM UDPGA, 15 min
[7] = Supersomes with recombinant human UGT1A1, pH 7.5, probe raloxifene 50 μM, formation of glucuronide G1, % of control metabolism, raloxifene G1, UGT1A1
[8] = Supersomes with recombinant human UGT1A1, pH 7.5, probe raloxifene 50 μM, formation of glucuronide G1, Inhibition of raloxifene glucuronidation, G1, UGT1A1, G1, raloxifene 50 μM, 250 μg/ml Supersomes, 1 mM UDPGA, 15 min
[9] = Supersomes with recombinant human UGT1A1, pH 7.5, probe raloxifene 50 μM, formation of glucuronide G2, % of control metabolism, raloxifene G2, UGT1A1
[10] = recombinant UGT1A1 Supersomes, pH 7.5, probe raloxifene 50 μM (formation of glucuronide G2), Inhibition of raloxifene glucuronidation, G2, UGT1A1, G2, raloxifene 50 μM, 250 μg/ml Supersomes, 1 mM UDPGA, 15 min

activity at 15 min, 10 µM (UGT1A3; [3]): 65% | activity at 15 min, 25 µM (UGT1A3; [3]): 32% | activity at 15 min, 50 µM (UGT1A3; [3]): 14% | activity at 15 min, 10 µM (UGT1A3; [4]): 74% | activity at 15 min, 25 µM (UGT1A3; [4]): 48% | activity at 15 min, 50 µM (UGT1A3; [4]): 21% | activity at 15 min, 10 µM (UGT1A3; [5]): 65% | activity at 15 min, 25 µM (UGT1A3; [5]): 32% | activity at 15 min, 50 µM (UGT1A3; [5]): 14% | activity at 15 min, 10 µM (UGT1A3; [6]): 74% | activity at 15 min, 25 µM (UGT1A3; [6]): 48% | activity at 15 min, 50 µM (UGT1A3; [6]): 21% | residual metabolism (% of control), E2-3-β-D-glucuronide ([1]; inhibitor 1 μM): 86 (2) % | residual metabolism (% of control), E2-17-β-D-glucuronide ([1]; inhibitor 1 μM): 108 (5) % | residual metabolism (% of control), E2-3-β-D-glucuronide ([1]; inhibitor 10 μM): 53 (4) % | residual metabolism (% of control), E2-17-β-D-glucuronide ([1]; inhibitor 10 μM): 78 (3) % | residual metabolism (% of control), E2-3-β-D-glucuronide ([1]; inhibitor 100 μM): 5 (1) % | residual metabolism (% of control), E2-17-β-D-glucuronide ([1]; inhibitor 100 μM): 24 (4) % | Inhibition of raloxifene glucuronidation, UGT1A9, first line per inhibitor (G1) (UGT1A9; inhibitor 2 μM): 90 (0) | Inhibition of raloxifene glucuronidation, UGT1A9, first line per inhibitor (G1) (UGT1A9; inhibitor 5 μM): 86 (0) | Inhibition of raloxifene glucuronidation, UGT1A9, first line per inhibitor (G1) (UGT1A9; inhibitor 10 μM): 78 (3) | Inhibition of raloxifene glucuronidation, UGT1A9, first line per inhibitor (G1) (UGT1A9; inhibitor 25 μM): 49 (5) | Inhibition of raloxifene glucuronidation, UGT1A9, first line per inhibitor (G1) (UGT1A9; inhibitor 50 μM): 31 (2) | activity at 15 min, 2 μM (UGT1A9; formation of glucuronide G1, % of control metabolism, raloxifene G1, UGT1A9, inhibitor 2 μM): 90% | activity at 15 min, 5 µM (UGT1A9; formation of glucuronide G1, % of control metabolism, raloxifene G1, UGT1A9, inhibitor 5 μM): 86% | activity at 15 min, 10 µM (UGT1A9; formation of glucuronide G1, % of control metabolism, raloxifene G1, UGT1A9, inhibitor 10 μM): 78% | activity at 15 min, 25 µM (UGT1A9; formation of glucuronide G1, % of control metabolism, raloxifene G1, UGT1A9, inhibitor 25 μM): 49% | activity at 15 min, 50 µM (UGT1A9; formation of glucuronide G1, % of control metabolism, raloxifene G1, UGT1A9, inhibitor 50 μM): 31% | activity at 15 min, 2 μM (UGT1A9; formation of glucuronide G2, % of control metabolism, raloxifene G2, UGT1A9, inhibitor 2 μM): 175% | activity at 15 min, 5 µM (UGT1A9; formation of glucuronide G2, % of control metabolism, raloxifene G2, UGT1A9, inhibitor 5 μM): 260% | activity at 15 min, 10 µM (UGT1A9; formation of glucuronide G2, % of control metabolism, raloxifene G2, UGT1A9, inhibitor 10 μM): 290% | activity at 15 min, 25 µM (UGT1A9; formation of glucuronide G2, % of control metabolism, raloxifene G2, UGT1A9, inhibitor 25 μM): 309% | activity at 15 min, 50 µM (UGT1A9; formation of glucuronide G2, % of control metabolism, raloxifene G2, UGT1A9, inhibitor 50 μM): 245% | Inhibition of raloxifene glucuronidation, UGT1A9, second line per inhibitor (G2) (UGT1A9; inhibitor 2 μM): 175 (0) | Inhibition of raloxifene glucuronidation, UGT1A9, second line per inhibitor (G2) (UGT1A9; inhibitor 5 μM): 260 (3) | Inhibition of raloxifene glucuronidation, UGT1A9, second line per inhibitor (G2) (UGT1A9; inhibitor 10 μM): 290 (9) | Inhibition of raloxifene glucuronidation, UGT1A9, second line per inhibitor (G2) (UGT1A9; inhibitor 50 μM): 245 (3) | Vmax of 7-HFC glucuronidation (fit of the experiment with this inhibitor) [2]: 64 ± 4 nmol/min/mg | Km ([2]; read-out: Km of 7-HFC glucuronidation (fit of the experiment with this inhibitor)): 87 ± 7 µM | activity at 15 min (UGT1A1; Supersomes with recombinant human UGT1A1, pH 7.5, probe raloxifene 50 μM, formation of glucuronide G1): 59% | activity at 15 min, 10 µM (UGT1A1; [7]): 59% | activity at 15 min, 25 µM (UGT1A1; [7]): 26% | activity at 15 min, 50 µM (UGT1A1; [7]): 12% | activity at 15 min, 25 µM (UGT1A1; [8]): 26% | activity at 15 min, 50 µM (UGT1A1; [8]): 12% | activity at 15 min, 10 µM (UGT1A1; [9]): 72% | activity at 15 min, 25 µM (UGT1A1; [9]): 41% | activity at 15 min, 50 µM (UGT1A1; [9]): 27% | activity at 15 min (UGT1A1; recombinant UGT1A1 Supersomes, pH 7.5, probe raloxifene 50 μM (formation of glucuronide G2)): 72% | activity at 15 min, 25 µM (UGT1A1; [10]): 41% | activity at 15 min, 50 µM (UGT1A1; [10]): 27%
SMILES: CC/C(=C(/CC)c1ccc(O)cc1)c1ccc(O)cc1 [Diethylstilbestrol, reference compound]
